Measured values taken from patent publication US12344649B2, “Modulators of parathyroid hormone receptor (PTHR1)” (Flagship Pioneering Innovations VI, LLC, priority 2019, dated 2025).
Where “and” joins values, the source holds several entries; their conditions need not be identical. Identical values can stand only once. Where no end group is shown, it is not given here.

Tests used:
Assay type in all cases: cell-based
[1] = molecular target: T1, PTHR1 (Homo sapiens, UniProt Q03431); experiment: cAMP accumulation assay (HTRF) in CHO-K1/Ga15/PTHR1 cells; set-up: host or cells: CHO-K1 (recombinant line CHO-K1/Ga15/PTHR1); settings: for Emax: CHO-K1, cAMP assay, fitted dose-response maximum; for cAMP accumulation activity compared to control peptide: FIG. 3, PTH 1-34 positive control; for cAMP: relative to PTH [1-34], CHO-K1/Ga15/PTHR1 cells
T1 sequence (Q03431 27-593): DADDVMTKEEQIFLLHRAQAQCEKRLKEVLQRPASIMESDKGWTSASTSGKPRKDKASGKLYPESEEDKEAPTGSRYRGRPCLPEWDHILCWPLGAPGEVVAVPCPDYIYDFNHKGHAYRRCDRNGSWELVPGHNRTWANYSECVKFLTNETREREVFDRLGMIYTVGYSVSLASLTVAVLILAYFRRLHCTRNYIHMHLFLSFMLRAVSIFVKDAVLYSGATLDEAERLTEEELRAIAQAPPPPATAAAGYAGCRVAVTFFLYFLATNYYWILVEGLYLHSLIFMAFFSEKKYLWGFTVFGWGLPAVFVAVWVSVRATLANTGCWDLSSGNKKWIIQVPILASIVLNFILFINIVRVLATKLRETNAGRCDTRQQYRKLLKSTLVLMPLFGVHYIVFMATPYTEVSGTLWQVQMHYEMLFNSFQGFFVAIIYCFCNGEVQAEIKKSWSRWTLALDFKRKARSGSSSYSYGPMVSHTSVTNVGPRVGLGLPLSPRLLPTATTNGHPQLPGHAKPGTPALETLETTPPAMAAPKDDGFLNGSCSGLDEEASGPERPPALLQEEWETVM
Description: Cell suspension (5 μL) was seeded in 384-well plates at a density of 3,000 cells/well. Cells were treated with test samples (5 μL) or agonist (PTH 1-34) for 30 minutes at room temperature. cAMP-d2 working solution (5 μL) and anti-cAMP-Cryptate working solution (5 μL) were added to cells and incubated for 60 minutes at room temperature. The signal of the assay plate was read with PheraStar (BMG LABTECH, NC), an HTRF compatible reader.

[2] = molecular target: T1, PTHR1; experiment: β-arrestin1 recruitment BRET assay in transfected HEK293T cells; set-up: Flag (N); Life Technologies Corporation, CA (arrestin cDNA); host or cells: HEK293T (CRL-3216, ATCC); settings: for −log10Slope: fitted curve slope; for −log10Slope / EC50: replicate plates
Description: (§1) 18-24 hours post transfection, the Luciferase substrate Coelenterazine (NanoLight Technologies, AZ) was added to cells, a baseline BRET measurement was taken after 5 minutes incubation, and then serial dilutions of peptides, diluted in PBS (with 0.5 mM MgCl2+0.1% BSA FAF), were added to cells, and BRET signal was measured every 2 minutes for 30 minutes on Hybrid Multi-Mode Reader (Synergy Neo2, BioTek, VT). Seventy-five peptides were tested in the β-arrestin recruitment assay.

[3] = molecular target: T1, PTHR1; experiment: β-arrestin2 recruitment BRET assay in transfected HEK293T cells; set-up: Flag (N); Life Technologies Corporation, CA (arrestin cDNA); host or cells: HEK293T (CRL-3216, ATCC); settings: for β-arrestin2 assay activity compared to control peptide: FIG. 2, PTH 1-34 positive control; for β2-arrestin: relative to PTH [1-34], HEK293T cells, BRET; for −log10Slope: fitted curve slope; for −log10Slope / EC50: replicate plates
Description: as §1

[4] = cAMP accumulation, fitted curve slope, replicate plates
[5] = cAMP accumulation, replicate plates, read-out: −log10EC50 (converted)
[6] = β-arrestin2 recruitment, read-out: −log10EC50 (converted)
[7] = β-arrestin1 recruitment, read-out: −log10EC50 (converted)
[8] = cAMP assay, fitted dose-response curve, read-out: −log10EC50 (converted)
[9] = cAMP assay, fitted dose-response slope

Compound | cAMP accumulation activity compared to control peptide [1] | cAMP [1] | −log10Slope [1, 4] | EC50 [1, 5] | other results
CC[C@H](C)[C@H](NC(=O)[C@H](CCC(=O)O)NC(=O)[C@H](CO)NC(=O)[C@@H](NC(=O)[C@@H](N)CO)C(C)C)C(=O)N[C@@H](CCC(N)=O)C(=O)N[C@@H](CC(C)C)C(=O)N[C@@H](CCSC)C(=O)N[C@@H](Cc1cnc[nH]1)C(=O)N[C@@H](CC(N)=O)C(=O)N[C@@H](CC(C)C)C(=O)NCC(=O)N[C@@H](CCCCN)C(=O)N[C@@H](Cc1cnc[nH]1)C(=O)N[C@@H](CC(C)C)C(=O)N[C@@H](CC(N)=O)C(=O)N[C@@H](CO)C(=O)N[C@@H](CCSC)C(=O)N[C@@H](CCC(=O)O)C(=O)N[C@@H](CCCN=C(N)N)C(=O)N[C@H](C(=O)N[C@@H](CCC(=O)O)C(=O)N[C@@H](Cc1c[nH]c2ccccc12)C(=O)N[C@@H](CC(C)C)C(=O)N[C@@H](CCCN=C(N)N)C(=O)N[C@@H](CCCCN)C(=O)N[C@@H](CCCCN)C(=O)N[C@@H](CC(C)C)C(=O)N[C@@H](CCC(N)=O)C(=O)N[C@@H](CC(=O)O)C(=O)N[C@H](C(=O)N[C@@H](Cc1cnc[nH]1)C(=O)N[C@@H](CC(N)=O)C(=O)N[C@@H](Cc1ccccc1)C(=O)O)C(C)C)C(C)C [Teriparatide, reference compound] | increased activity as compared to the control peptide | ++ |  |  | Emax [1]: 100%; −log10Slope ([1]; cAMP accumulation, fitted curve slope, replicate plates, listed as R1-101): −4.492 and −4.864 and −4.046; β1-arrestin ([2]; relative to PTH [1-34], HEK293T cells, BRET): +; −log10Slope ([2]; β-arrestin1 recruitment, listed as R1-101): −2.906 and −3.664 and −1.356; β-arrestin2 assay activity compared to control peptide [3]: increased activity as compared to control; β2-arrestin [3]: ++; −log10Slope ([3]; β-arrestin2 recruitment, listed as R1-101): −3.44 and −3.409 and −3.396
AVAEIQLMHQRAKWAIQEIGIKITRELLERYL [Peptide R2-42] |  |  | 13.11 | 0.285 µM | −log10Slope ([2]; β-arrestin1 recruitment): −1.503 and −1.149 and −5.574; β-arrestin2 assay activity compared to control peptide [3]: activity similar to the control peptide; β2-arrestin [3]: +; −log10Slope ([3]; β-arrestin2 recruitment): −2.7849 and −2.122 and −2.912; EC50 [3, 6]: 0.00807 µM and 0.00422 µM and 0.0237 µM
AVAEIQLMHQRAKWDLLIELVKLLHELLKEYI [Peptide R2-40] | increased activity as compared to the control peptide | ++ | −2.205 | 5.83e-06 µM | −log10Slope ([2]; β-arrestin1 recruitment): −4.125 and −1.577; EC50 [2, 7]: 0.571 µM and 3.6 µM; −log10Slope ([3]; β-arrestin2 recruitment): −3.733 and −2.83; EC50 [3, 6]: 0.856 µM and 1.41 µM
AVAEIQLMHQRAKWDVLIELAKLLAELLRRYH [Peptide R2-47] | increased activity as compared to the control peptide | ++ | 12 |  | EC50 [1]: 0.000591 µM; −log10Slope ([2]; β-arrestin1 recruitment): −1.834 and −2.2235 and −1.644; EC50 ([2]; −log10EC50, β-arrestin1 recruitment): 1.43 µM and 0.651 µM and 3.64 µM; −log10Slope ([3]; β-arrestin2 recruitment): −2.078 and −1.716 and −1.634; EC50 ([3]; −log10EC50, β-arrestin2 recruitment): 1.37 µM and 1.71 µM and 3.48 µM
AVAEIQLMHQRAKWEIQEIGIKITLDLLQTLK [Peptide R2-41] | increased activity as compared to the control peptide | ++ | −2.911 | 5.57e-05 µM | −log10Slope ([2]; β-arrestin1 recruitment): −8.214; EC50 [2, 7]: 0.00383 µM; −log10Slope ([3]; β-arrestin2 recruitment): −4.333; EC50 [3, 6]: 0.94 µM
AVAEIQLMHQRAKWEIQEIGIKITLELLKEYI [Peptide R2-37] | increased activity as compared to the control peptide |  | −5.899 | 0.000813 µM | −log10Slope ([2]; β-arrestin1 recruitment): −1.386 and −0.8678 and −5.353; −log10Slope ([3]; β-arrestin2 recruitment): −4.144 and −2.117 and −4.372; EC50 [3, 6]: 0.386 µM and 1.38 µM and 0.497 µM
AVAEIQLMHQRAKWELQEIGIKITLDLLEAYL [Peptide R2-39] |  |  |  |  | −log10Slope ([2]; β-arrestin1 recruitment): −0.2801 and −4.065 and −4.878; EC50 [2, 7]: 0.775 µM and 0.594 µM; −log10Slope ([3]; β-arrestin2 recruitment): −5.314 and −3.58 and −2.2339
AVAEIQLMHQRAKWKQELELEEKNKKILEDVY [Peptide R2-32] |  |  | −14.3219 | 0.312 µM | 
AVAEIQLMHQRAKWRAEYELREMLLRLLEEIF [Peptide R1-96] | activity similar to the control peptide | + |  |  | Emax [1]: 99.7%; EC50 [1, 8]: 0.00986 µM; −log10Slope [1, 9]: −3.352
AVAEIQLMHQRAKWSILEELLKILTALLDEYI [Peptide R2-46] |  |  |  |  | −log10Slope ([2]; β-arrestin1 recruitment): −3.506 and −2.782 and −5.541; EC50 [2, 7]: 0.565 µM and 0.447 µM and 0.394 µM; −log10Slope ([3]; β-arrestin2 recruitment): −3.413 and −1.882 and −2.306; EC50 [3, 6]: 0.539 µM and 0.187 µM and 0.55 µM
AVATIQLMTDIAKIRAEYELREMLLRLLEEIF [Peptide R2-6] |  |  | −0.3341 |  | 
GIAVFTIMHLRIYLRAEYELREMLLRLLEEIF [Peptide R2-17] |  |  | −2.077 | 448 µM | 
GIAVITIMIDYAKLRAEYELREMLLRLLEEIF [Peptide R2-22] | increased activity as compared to the control peptide | ++ | 7.165 |  | EC50 [1]: 7.09e-05 µM
GIAVLTILDLRAKLRAEYELREMLLRLLEEIF [Peptide R2-14] | increased activity as compared to the control peptide | ++ | 2.196 |  | EC50 [1]: 5.21e-06 µM
GLAALTIGLLRAKLRAEYELREMLLRLLEEIF [Peptide R2-24] | increased activity as compared to the control peptide | ++ | 5.587 |  | EC50 [1]: 4.24e-05 µM
GVAEIQLMHDIPVIRAEYELREMLLRLLEEIF [Peptide R2-3] |  |  | −8.5715 | 11.8 µM | 
GVAEIQLMVDLDIIRAEYELREMLLRLLEEIF [Peptide R2-12] |  |  | −2.726 | 137 µM | 
GVAELQLMHDLAKIKLELELKVKLLEILKDVY [Peptide R2-49] |  |  |  |  | Emax [1]: 99.9%; EC50 [1, 8]: 1.62 µM; −log10Slope [1, 9]: −5.638
GVAELQLMHFRALLRAEYELREMLLRLLEEIF [Peptide R2-7] |  |  | −0.9597 | 26100 µM | 
GVALLQIVHDFAKIRAEYELREMLLRLLEEIF [Peptide R2-5] |  |  | −4.972 |  | 
GVAMLQILHDKAKVRAEYELREMLLRLLEEIF [Peptide R2-11] |  |  | −11.3552 |  | EC50 [1]: 2.01 µM
GVSMLQIMHDLAVIRAEYELREMLLRLLEEIF [Peptide R2-4] |  |  | −13.5432 | 1.36 µM | 
GVVMLQFMHDVAKIRAEYELREMLLRLLEEIF [Peptide R2-9] |  |  | −0.02713 |  | 
GVYAIQAMHDLAKIRAEYELREMLLRLLEEIF [Peptide R2-10] |  |  | −8.781 | 32.5 µM | 
LILVEQLMDLRAYLRAEYELREMLLRLLEEIF [Peptide R2-16] |  |  | −8.301 | 19.6 µM | 
LILVKKIIDLRAYLRAEYELREMLLRLLEEIF [Peptide R2-21] |  |  | −8.121 | 21.2 µM | 
LMHNLGKHLNSMERVEWLRKKLQDVHNFVA [PTH 7-36 antago, reference compound] |  |  |  |  | −log10Slope ([2]; β-arrestin1 recruitment): −1.192; EC50 [2, 7]: 0.105 µM; −log10Slope ([3]; β-arrestin2 recruitment): −2.649; EC50 [3, 6]: 0.0469 µM
PIPVKDIMDLRAYLRAEYELREMLLRLLEEIF [Peptide R2-19] |  |  | −5.2427 | 20.5 µM | 
SIIGEQLMLLRALLRAEYELREMLLRLLEEIF [Peptide R2-18] |  |  | −1.186 | 5940 µM | 
VDFEIQLMQQRAQWIADYRIREFLDKLIAEIF [Peptide R1-94] | increased activity as compared to the control peptide | ++ |  |  | Emax [1]: 90.8%; EC50 [1, 8]: 7.36e-05 µM; −log10Slope [1, 9]: −3.981
